Patent publication US10087242B2 (INSTITUT PASTEUR, priority 2007, dated 2018)
pIC50: −log10 of the molar value.

How the values were obtained:
Format in all cases: binding, mouse
mIgG G7-12 = experiment: inhibition ELISA: oligosaccharide inhibits fixation of mIgG G7-12 on LPS 3a; conditions: concentration of oligosaccharide giving 50% inhibition of fixation of the mAb on LPS 3a (S. flexneri 3a)
Description: (§1) The oligosaccharide determinants recognized by the four mAbs obtained were characterized by measuring, by inhibition ELISA, the interaction of the various oligosaccharides synthesized with these mAbs.
(§2) 1) First, a standard curve OD=f(concentration of the mAb) was established for each antibody.
(§3) For this, purified LPS from S. flexneri 3a was fixed in the wells of ELISA plates (96-well plate), at a concentration of 25 μg/ml in a carbonate buffer pH 9.6, at 4° C., overnight.
(§4) After washing the wells with a solution of PBS/ Tween 20 (0.05%) 1% and a stage of saturation with PBS/BSA 1% for 30 minutes at 4° C., various concentrations of each mAb were incubated for 30 minutes at 4° C. After a washing stage, a secondary antibody coupled to alkaline phosphatase and specific to the mouse IgGs or IgMs was added at a dilution of 1/5000 (Sigma-Aldrich) for 1 h at 37° C. After washing, the enzymatic reaction was carried out with the specific substrate of alkaline phosphatase (12 mg of p-nitrophenylphosphate in 1.2 ml of Tris-HCl buffer 1M (pH 8.8) and 10.8 ml of 5M NaCl). Once the color reaction had developed, the plates were read at 405 nm (Dynatech MR 4000 plate reader). The standard curve OD =f(Ab concentration) was refined with the equation Y=aX2+bX+c, where Y corresponds to the OD and X to the antibody concentration. A correlation factor (r2) of 0.99 was generally obtained.
(§5) 2) The concentration of oligosaccharide capable of inhibiting 50% of the fixation of the mAb on LPS 3a was then determined as follows.
(§6) Each mAb was used at a given concentration, defined as the first concentration tested giving a maximum OD on the standard curve (the first point at the start of the plateau of the curve). Various concentrations of each of the oligosaccharides to be tested were then incubated separately with the mAb at constant concentration, overnight at 4° C., in 1% PBS-BSA buffer. Measurement of the free antibody concentration was carried out as stated above, after incubation of the mAb/oligosaccharide mixtures at 4° C. for 30 minutes on plates covered with LPS 3a and using the standard curve obtained in parallel on the same plate. For each mAb and each oligosaccharide, a value called IC50 was then calculated, corresponding to the concentration of oligosaccharide permitting 50% inhibition of the fixation of the mAb on LPS 3a.

mIgG C7-37 = experiment: inhibition ELISA: oligosaccharide inhibits fixation of mIgG C7-37 on LPS 3a; conditions: concentration of oligosaccharide giving 50% inhibition of fixation of the mAb on LPS 3a (S. flexneri 3a)
Description: as §1, §2, §3, §4, §5, §6

IgM (G 19-2) = experiment: inhibition ELISA: oligosaccharide inhibits fixation of IgM G19-2 on LPS 3a; conditions: concentration of oligosaccharide giving 50% inhibition of fixation of the mAb on LPS 3a (S. flexneri 3a), inhibition ELISA
Description: Protocol 2) Ten Balb/C mice and four BP2 mice were immunized by i.p. injection with virulent live bacteria of the strain S. flexneri 3a, every three weeks, using 2×10^6 bacteria for the first 2 immunizations and 5×10^6 for the next 4. As the anti-LPS 3a antibody response was too weak for performing cellular fusion, an additional series of 4 injections was carried out. Two mAbs of type IgM, G19-2 and L18-9, were obtained.
as §1, §2, §3, §4, §5, §6

Substance: Propyl (2/3-O-acetyl-α-L-rhamnopyranosyl)-(1→3)-(2-acetamido-2-deoxy-β-D-glucopyranosyl)-(1→2)-(α-D-glucopyranosyl-(1→3)-α-L-rhamnopyranoside [C(2-OAc)DEA-OPr]
- pIC50 (mIgG G7-12): < 2.60
- pIC50 (mIgG C7-37): < 2.30
- pIC50 (IgM (G 19-2)): < 2.60
